Test results published in patent US9469650B2, “Melampomagnolide B derivatives” (BOARD OF TRUSTEES OF THE UNIVERSITY OF ARKANSAS, priority 2013, dated 2016).

Assays:
CCRF-CEM = assay: panel of 60 human tumor cell lines, growth inhibition (Leukemia)
SK-MEL-28 = assay: panel of 60 human tumor cell lines, growth inhibition (Melanoma); details: SK-MEL-28
UACC-62 = assay: as above; details: UACC-62
SNB-19 = assay: panel of 60 human tumor cell lines, growth inhibition (CNS Cancer); details: SNB-19
SNB-75 = assay: as above; details: SNB-75
HCC-2998 = assay: panel of 60 human tumor cell lines, growth inhibition (Colon Cancer); details: HCC-2998
HCT-116 = assay: as above; details: HCT-116
786-0 = assay: panel of 60 human tumor cell lines, growth inhibition (Renal Cancer); details: 786-0
A498 = assay: as above; details: A498
RXF 393 = assay: as above; details: RXF 393
UO-31 = assay: as above; details: UO-31
T-47D = assay: panel of 60 human tumor cell lines, growth inhibition (Breast Cancer); details: T-47D
OVCAR-5 = assay: panel of 60 human tumor cell lines, growth inhibition (Ovarian Cancer); details: OVCAR-5
NCI/ADR-RES = assay: as above
SK-OV-3 = assay: as above; details: SK-OV-3
DU-145 = assay: panel of 60 human tumor cell lines, growth inhibition (Prostate Cancer); details: DU-145
NCI-H23 = assay: panel of 60 human tumor cell lines, growth inhibition (Non-Small Cell Lung Cancer); details: NCI-H23
NCI-H522 = assay: as above; details: NCI-H522

Which results are given for C=C1C(=O)O[C@H]2[C@H]1CC/C(COC(=O)NCCO)=C\CC[C@@]1(C)O[C@@H]21 [JVM 2-50]?
Percent Growth (CCRF-CEM; Log10 Concentration −4.0): −44%; Percent Growth (CCRF-CEM; Log10 Concentration −5.0): 1%; Percent Growth (CCRF-CEM; Log10 Concentration −6.0): 83%; Percent Growth (CCRF-CEM; Log10 Concentration −7.0): 102%; Percent Growth (CCRF-CEM; Log10 Concentration −8.0): 98%; GI50 (CCRF-CEM; NCI five dose): 2.52 µM; TGI (CCRF-CEM; NCI five dose): 1.03E−5; Percent Growth (SK-MEL-28; Log10 Concentration −4.0): −61%; Percent Growth (SK-MEL-28; Log10 Concentration −5.0): 48%; Percent Growth (SK-MEL-28; Log10 Concentration −6.0): 99%; Percent Growth (SK-MEL-28; Log10 Concentration −7.0): 104%; Percent Growth (SK-MEL-28; Log10 Concentration −8.0): 95%; GI50 (SK-MEL-28; NCI five dose): 9.33 µM; TGI (SK-MEL-28; NCI five dose): 2.77E−5; Percent Growth (UACC-62; Log10 Concentration −4.0): −84%; Percent Growth (UACC-62; Log10 Concentration −5.0): 62%; Percent Growth (UACC-62; Log10 Concentration −6.0): 97%; Percent Growth (UACC-62; Log10 Concentration −7.0): 93%; Percent Growth (UACC-62; Log10 Concentration −8.0): 93%; GI50 (UACC-62; NCI five dose): 12 µM; TGI (UACC-62; NCI five dose): 2.65E−5; Percent Growth (SNB-19; Log10 Concentration −4.0): 19%; Percent Growth (SNB-19; Log10 Concentration −5.0): 84%; Percent Growth (SNB-19; Log10 Concentration −6.0): 95%; Percent Growth (SNB-19; Log10 Concentration −7.0): 93%; Percent Growth (SNB-19; Log10 Concentration −8.0): 99%; GI50 (SNB-19; NCI five dose): 32.6 µM; TGI (SNB-19; NCI five dose): >1.00E−4; Percent Growth (SNB-75; Log10 Concentration −4.0): −20%; Percent Growth (SNB-75; Log10 Concentration −5.0): 68%; Percent Growth (SNB-75; Log10 Concentration −6.0): 79%; Percent Growth (SNB-75; Log10 Concentration −7.0): 79%; Percent Growth (SNB-75; Log10 Concentration −8.0): 70%; GI50 (SNB-75; NCI five dose): 16 µM; TGI (SNB-75; NCI five dose): 5.92E−5; Percent Growth (HCC-2998; Log10 Concentration −4.0): −70%; Percent Growth (HCC-2998; Log10 Concentration −5.0): 105%; Percent Growth (HCC-2998; Log10 Concentration −6.0): 136%; Percent Growth (HCC-2998; Log10 Concentration −7.0): 106%; Percent Growth (HCC-2998; Log10 Concentration −8.0): 98%; GI50 (HCC-2998; NCI five dose): 20.6 µM; TGI (HCC-2998; NCI five dose): 3.99E−5; Percent Growth (HCT-116; Log10 Concentration −4.0): −75%; Percent Growth (HCT-116; Log10 Concentration −5.0): 15%; Percent Growth (HCT-116; Log10 Concentration −6.0): 90%; Percent Growth (HCT-116; Log10 Concentration −7.0): 96%; Percent Growth (HCT-116; Log10 Concentration −8.0): 93%; GI50 (HCT-116; NCI five dose): 3.43 µM; TGI (HCT-116; NCI five dose): 1.48E−5; CC50 (HCT-116; read-out: LC50, NCI five dose): 53.2 µM; Percent Growth (786-0; Log10 Concentration −4.0): −74%; Percent Growth (786-0; Log10 Concentration −5.0): 59%; Percent Growth (786-0; Log10 Concentration −6.0): 97%; Percent Growth (786-0; Log10 Concentration −7.0): 97%; Percent Growth (786-0; Log10 Concentration −8.0): 91%; GI50 (786-0; NCI five dose): 11.7 µM; TGI (786-0; NCI five dose): 2.78E−5; Percent Growth (A498; Log10 Concentration −4.0): −25%; Percent Growth (A498; Log10 Concentration −5.0): 58%; Percent Growth (A498; Log10 Concentration −6.0): 60%; Percent Growth (A498; Log10 Concentration −7.0): 68%; Percent Growth (A498; Log10 Concentration −8.0): 74%; GI50 (A498; NCI five dose): 12.4 µM; TGI (A498; NCI five dose): 5.01E−5; Percent Growth (RXF 393; Log10 Concentration −4.0): −68%; Percent Growth (RXF 393; Log10 Concentration −5.0): 20%; Percent Growth (RXF 393; Log10 Concentration −6.0): 98%; Percent Growth (RXF 393; Log10 Concentration −7.0): 93%; Percent Growth (RXF 393; Log10 Concentration −8.0): 91%; GI50 (RXF 393; NCI five dose): 4.14 µM; TGI (RXF 393; NCI five dose): 1.69E−5; Percent Growth (UO-31; Log10 Concentration −4.0): −65%; Percent Growth (UO-31; Log10 Concentration −5.0): 67%; Percent Growth (UO-31; Log10 Concentration −6.0): 96%; Percent Growth (UO-31; Log10 Concentration −7.0): 99%; Percent Growth (UO-31; Log10 Concentration −8.0): 95%; GI50 (UO-31; NCI five dose): 13.5 µM; TGI (UO-31; NCI five dose): 3.23E−5; Percent Growth (T-47D; Log10 Concentration −4.0): −54%; Percent Growth (T-47D; Log10 Concentration −5.0): 16%; Percent Growth (T-47D; Log10 Concentration −6.0): 69%; Percent Growth (T-47D; Log10 Concentration −7.0): 95%; Percent Growth (T-47D; Log10 Concentration −8.0): 89%; GI50 (T-47D; NCI five dose): 3.46 µM; TGI (T-47D; NCI five dose): 1.71E−5; Percent Growth (OVCAR-5; Log10 Concentration −4.0): −54%; Percent Growth (OVCAR-5; Log10 Concentration −5.0): 68%; Percent Growth (OVCAR-5; Log10 Concentration −6.0): 85%; Percent Growth (OVCAR-5; Log10 Concentration −7.0): 91%; Percent Growth (OVCAR-5; Log10 Concentration −8.0): 89%; GI50 (OVCAR-5; NCI five dose): 14 µM; TGI (OVCAR-5; NCI five dose): 1.59E−5; Percent Growth (NCI/ADR-RES; Log10 Concentration −4.0): 16%; Percent Growth (NCI/ADR-RES; Log10 Concentration −5.0): 105%; Percent Growth (NCI/ADR-RES; Log10 Concentration −6.0): 106%; Percent Growth (NCI/ADR-RES; Log10 Concentration −7.0): 113%; Percent Growth (NCI/ADR-RES; Log10 Concentration −8.0): 108%; GI50 (NCI/ADR-RES; NCI five dose): 41.5 µM; TGI (NCI/ADR-RES; NCI five dose): >1.00E−4; Percent Growth (SK-OV-3; Log10 Concentration −4.0): 23%; Percent Growth (SK-OV-3; Log10 Concentration −5.0): 106%; Percent Growth (SK-OV-3; Log10 Concentration −6.0): 103%; Percent Growth (SK-OV-3; Log10 Concentration −7.0): 103%; Percent Growth (SK-OV-3; Log10 Concentration −8.0): 92%; GI50 (SK-OV-3; NCI five dose): 47 µM; TGI (SK-OV-3; NCI five dose): >1.00E−4; Percent Growth (DU-145; Log10 Concentration −4.0): −92%; Percent Growth (DU-145; Log10 Concentration −5.0): 60%; Percent Growth (DU-145; Log10 Concentration −6.0): 107%; Percent Growth (DU-145; Log10 Concentration −7.0): 106%; Percent Growth (DU-145; Log10 Concentration −8.0): 108%; GI50 (DU-145; NCI five dose): 11.6 µM; TGI (DU-145; NCI five dose): 2.47E−5; Percent Growth (NCI-H23; Log10 Concentration −4.0): −53%; Percent Growth (NCI-H23; Log10 Concentration −5.0): 67%; Percent Growth (NCI-H23; Log10 Concentration −6.0): 100%; Percent Growth (NCI-H23; Log10 Concentration −7.0): 102%; Percent Growth (NCI-H23; Log10 Concentration −8.0): 98%; GI50 (NCI-H23; NCI five dose): 13.8 µM; TGI (NCI-H23; NCI five dose): 3.61E−5; Percent Growth (NCI-H522; Log10 Concentration −4.0): −69%; Percent Growth (NCI-H522; Log10 Concentration −5.0): −56%; Percent Growth (NCI-H522; Log10 Concentration −6.0): 97%; Percent Growth (NCI-H522; Log10 Concentration −7.0): 104%; Percent Growth (NCI-H522; Log10 Concentration −8.0): 98%; GI50 (NCI-H522; NCI five dose): 2.03 µM; TGI (NCI-H522; NCI five dose): 4.30E−6
